Like-named read-outs stand apart in the source and are kept apart here.
Experiments:
Assay type in all cases: biochemical
kinases [1] = molecular target: kinases (Homo sapiens, UniProt Q05655); conditions: PRKCD (PKC delta) Z-Lyte SP; Test Conc(μM):ATP Conc(μM) 1:25
kinases [2] = molecular target: kinases (Homo sapiens, UniProt P54760); conditions: EPHB4 FRET-Z-Lyte SP; Test Conc(μM):ATP Conc(μM) 1:100
kinases [3] = molecular target: kinases (Homo sapiens, UniProt Q06187); conditions: BTK FRET-Z-Lyte SP; Test Conc(μM):ATP Conc(μM) 1:25
kinases [4] = molecular target: kinases (Homo sapiens, UniProt P19784); conditions: CSNK2A2 (CK2alpha2) Z-Lyte SP; Test Conc(μM):ATP Conc(μM) 1:50
kinases [5] = molecular target: kinases (Homo sapiens, UniProt Q16644); conditions: MAPKAPK3 FRET-Z-Lyte SP; Test Conc(μM):ATP Conc(μM) 1:200
kinases [6] = molecular target: kinases (Homo sapiens, UniProt Q8N568); conditions: DCAMKL2 (DCK2) FRET-Z-Lyte SP; Test Conc(μM):ATP Conc(μM) 1:150
kinases [7] = molecular target: kinases (Homo sapiens, UniProt P53779)
kinases [8] = molecular target: kinases (Homo sapiens, UniProt P51617); conditions: IRAK1 FRET-Adapta SP; Test Conc(μM):ATP Conc(μM) 1:25
kinases [9] = molecular target: kinases (Homo sapiens, UniProt Q9NRA0); conditions: SPHK2 FRET-Adapta SP; Test Conc(μM):ATP Conc(μM) 1:10
kinases [10] = molecular target: kinases (Homo sapiens, UniProt Q8IVH8); conditions: MAP4K3 (GLK) FRET-Lantha SP; Test Conc(μM) 1
kinases [11] = molecular target: kinases (Homo sapiens, UniProt P42684); conditions: ABL2 (Arg) FRET-Z-Lyte SP; Test Conc(μM):ATP Conc(μM) 1:25
kinases [12] = molecular target: kinases (Homo sapiens, UniProt O94806); conditions: PRKCN (PKD3) FRET-Z-Lyte SP; Test Conc(μM):ATP Conc(μM) 1:25
kinases [13] = molecular target: kinases (Homo sapiens, UniProt P24941)
kinases [14] = molecular target: kinases (Homo sapiens, UniProt Q9UIK4); conditions: DAPK2 FRET-Lantha SP; Test Conc(μM) 1
kinases [15] = molecular target: kinases (Homo sapiens, UniProt P14616); conditions: INSRR (IRR) *Mn* Z-Lyte SP; Test Conc(μM):ATP Conc(μM) 1:50
kinases [16] = molecular target: kinases (Homo sapiens, UniProt P29317); conditions: EPHA2 FRET-Z-Lyte SP; Test Conc(μM):ATP Conc(μM) 1:75
kinases [17] = molecular target: kinases (Homo sapiens, UniProt Q13163); conditions: MAP2K5 (MEK5) FRET-Lantha SP; Test Conc(μM) 1
kinases [18] = molecular target: kinases (Homo sapiens, UniProt P49137); conditions: MAPKAPK2 FRET-Z-Lyte SP; Test Conc(μM):ATP Conc(μM) 1:5
kinases [19] = molecular target: kinases (Homo sapiens, UniProt Q13705); conditions: ACVR2B FRET-Lantha SP; Test Conc(μM) 1
kinases [20] = molecular target: kinases (Homo sapiens, UniProt O76039); conditions: CDKL5 FRET-Z-Lyte SP; Test Conc(μM):ATP Conc(μM) 1:500
kinases [21] = molecular target: kinases (Homo sapiens, UniProt P34947); conditions: GRK5 *Mn* FRET-Z-Lyte SP; Test Conc(μM):ATP Conc(μM) 1:5
kinases [22] = molecular target: kinases (Homo sapiens, UniProt Q9NWZ3); conditions: IRAK4 *Mn* FRET-Z-Lyte SP; Test Conc(μM):ATP Conc(μM) 1:25
kinases [23] = molecular target: kinases (Homo sapiens, UniProt Q8NI60); conditions: ADCK3 FRET-Lantha SP; Test Conc(μM) 1
kinases [24] = molecular target: kinases (Homo sapiens, UniProt O95819); conditions: MAP4K4 (HGK) FRET-Z-Lyte SP; Test Conc(μM):ATP Conc(μM) 1:10
kinases [25] = molecular target: kinases (Homo sapiens, UniProt Q06418); conditions: TYRO3 (RSE) FRET-Z-Lyte SP; Test Conc(μM):ATP Conc(μM) 1:25
kinases [26] = molecular target: kinases (Homo sapiens, UniProt P52333); conditions: JAK3 FRET-Z-Lyte SP; Test Conc(μM):ATP Conc(μM) 1:10
kinases [27] = molecular target: kinases (Homo sapiens, UniProt P30291); conditions: WEE1 FRET-Lantha SP; Test Conc(μM) 1
kinases [28] = molecular target: kinases (Homo sapiens, UniProt Q9H2G2); conditions: SLK Hu Bind FRET-Lantha SP; Test Conc(μM) 1
[29] = MAPK10 (JNK3) FRET-Lantha SP, Test Conc(μM) 1
[30] = MAPK10 (JNK3)Cascade Z-Lyte SP, Test Conc(μM):ATP Conc(μM) 1:100
[31] = CDK2/Cyclin E1 FRET-Lantha SP, Test Conc(μM) 1
[32] = CDK2/Cyclin O FRET-Lantha SP, Test Conc(μM) 1
[33] = CDK2/cyclin A1 FRET-Lantha SP, Test Conc(μM) 1
[34] = CDK2/cyclin A FRET-Z-Lyte SP, Test Conc(μM):ATP Conc(μM) 1:25

kinases (Homo sapiens, UniProt P53779), sequence (P53779 whole entry): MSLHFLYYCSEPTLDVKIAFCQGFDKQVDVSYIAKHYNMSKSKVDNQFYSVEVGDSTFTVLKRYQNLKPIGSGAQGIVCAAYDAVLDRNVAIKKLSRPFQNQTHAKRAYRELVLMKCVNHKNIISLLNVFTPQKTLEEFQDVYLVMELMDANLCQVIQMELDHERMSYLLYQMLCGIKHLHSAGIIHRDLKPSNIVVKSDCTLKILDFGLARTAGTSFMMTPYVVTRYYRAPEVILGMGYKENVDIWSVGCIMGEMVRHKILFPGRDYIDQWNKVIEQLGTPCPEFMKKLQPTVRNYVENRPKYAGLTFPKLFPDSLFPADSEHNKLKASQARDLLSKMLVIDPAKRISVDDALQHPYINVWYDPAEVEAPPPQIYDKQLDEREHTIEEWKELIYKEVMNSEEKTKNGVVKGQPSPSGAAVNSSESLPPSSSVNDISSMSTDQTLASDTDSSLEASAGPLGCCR
kinases (Homo sapiens, UniProt Q8NI60), sequence (Q8NI60 163-647): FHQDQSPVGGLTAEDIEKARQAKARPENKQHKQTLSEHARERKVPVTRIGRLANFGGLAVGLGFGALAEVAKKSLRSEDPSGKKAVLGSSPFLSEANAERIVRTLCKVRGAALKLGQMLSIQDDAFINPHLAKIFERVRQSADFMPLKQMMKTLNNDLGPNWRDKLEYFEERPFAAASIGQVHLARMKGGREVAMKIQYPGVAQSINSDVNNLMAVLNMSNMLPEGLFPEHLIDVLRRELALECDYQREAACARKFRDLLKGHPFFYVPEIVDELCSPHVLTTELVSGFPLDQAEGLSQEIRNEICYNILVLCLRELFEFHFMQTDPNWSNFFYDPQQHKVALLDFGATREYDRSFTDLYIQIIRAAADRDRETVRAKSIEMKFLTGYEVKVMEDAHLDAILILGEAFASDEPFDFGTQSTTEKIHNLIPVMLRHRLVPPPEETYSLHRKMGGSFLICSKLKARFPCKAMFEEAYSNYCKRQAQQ
kinases (Homo sapiens, UniProt P51617), sequence (P51617 whole entry): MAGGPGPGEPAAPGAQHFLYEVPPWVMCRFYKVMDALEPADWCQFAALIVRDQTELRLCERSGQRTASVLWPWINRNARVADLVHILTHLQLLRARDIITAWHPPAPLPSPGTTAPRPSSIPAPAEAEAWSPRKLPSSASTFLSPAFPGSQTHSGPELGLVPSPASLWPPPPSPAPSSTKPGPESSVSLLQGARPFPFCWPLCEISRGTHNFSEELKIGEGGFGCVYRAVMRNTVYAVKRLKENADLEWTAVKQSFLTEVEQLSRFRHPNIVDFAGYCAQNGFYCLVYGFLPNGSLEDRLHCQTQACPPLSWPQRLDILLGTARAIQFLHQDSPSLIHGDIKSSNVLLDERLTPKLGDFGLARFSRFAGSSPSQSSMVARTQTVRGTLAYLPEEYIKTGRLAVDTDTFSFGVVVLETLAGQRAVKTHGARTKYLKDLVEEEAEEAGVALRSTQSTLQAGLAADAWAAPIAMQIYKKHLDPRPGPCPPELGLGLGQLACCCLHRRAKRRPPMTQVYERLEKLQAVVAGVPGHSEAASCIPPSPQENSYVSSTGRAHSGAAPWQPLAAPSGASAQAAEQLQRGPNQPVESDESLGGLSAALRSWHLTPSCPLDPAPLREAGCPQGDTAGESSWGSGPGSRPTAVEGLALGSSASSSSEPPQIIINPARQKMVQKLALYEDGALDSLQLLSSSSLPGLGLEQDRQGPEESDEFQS
kinases (Homo sapiens, UniProt P29317), sequence (P29317 24-976): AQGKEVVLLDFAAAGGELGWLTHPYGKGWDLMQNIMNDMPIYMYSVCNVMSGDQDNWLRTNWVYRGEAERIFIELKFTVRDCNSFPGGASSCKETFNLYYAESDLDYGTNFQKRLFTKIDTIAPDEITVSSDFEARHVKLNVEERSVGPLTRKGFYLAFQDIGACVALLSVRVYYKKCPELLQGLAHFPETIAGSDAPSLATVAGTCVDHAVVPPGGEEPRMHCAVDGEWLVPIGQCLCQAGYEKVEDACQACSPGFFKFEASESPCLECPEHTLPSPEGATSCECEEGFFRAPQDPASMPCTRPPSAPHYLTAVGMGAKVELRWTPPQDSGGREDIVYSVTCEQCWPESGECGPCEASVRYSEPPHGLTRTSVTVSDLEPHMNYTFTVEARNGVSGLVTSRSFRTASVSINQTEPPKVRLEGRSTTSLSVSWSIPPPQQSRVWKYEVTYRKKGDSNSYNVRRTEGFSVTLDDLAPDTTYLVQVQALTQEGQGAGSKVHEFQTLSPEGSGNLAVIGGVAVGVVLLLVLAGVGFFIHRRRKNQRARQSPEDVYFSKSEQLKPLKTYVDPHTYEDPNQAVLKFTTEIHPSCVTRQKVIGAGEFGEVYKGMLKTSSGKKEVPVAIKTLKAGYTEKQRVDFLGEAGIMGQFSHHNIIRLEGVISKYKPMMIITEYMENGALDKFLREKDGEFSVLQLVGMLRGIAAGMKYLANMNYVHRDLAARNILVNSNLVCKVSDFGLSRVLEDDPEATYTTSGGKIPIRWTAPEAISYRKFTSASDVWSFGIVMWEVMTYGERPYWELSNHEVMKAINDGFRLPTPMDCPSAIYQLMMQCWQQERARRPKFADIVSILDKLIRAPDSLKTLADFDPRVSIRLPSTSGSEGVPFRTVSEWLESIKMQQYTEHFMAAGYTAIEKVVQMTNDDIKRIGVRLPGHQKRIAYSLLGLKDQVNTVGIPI
kinases (Homo sapiens, UniProt Q16644), sequence (Q16644 whole entry): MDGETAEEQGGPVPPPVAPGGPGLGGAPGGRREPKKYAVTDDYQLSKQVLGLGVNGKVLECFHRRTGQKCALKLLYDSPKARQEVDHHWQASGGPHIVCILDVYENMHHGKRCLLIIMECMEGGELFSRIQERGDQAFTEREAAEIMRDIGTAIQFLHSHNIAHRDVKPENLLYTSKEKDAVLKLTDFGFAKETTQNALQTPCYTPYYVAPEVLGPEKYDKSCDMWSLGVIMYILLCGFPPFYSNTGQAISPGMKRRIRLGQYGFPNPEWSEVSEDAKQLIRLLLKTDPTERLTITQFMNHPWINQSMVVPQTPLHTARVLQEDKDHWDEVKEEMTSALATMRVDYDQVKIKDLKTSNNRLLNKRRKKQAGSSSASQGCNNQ
kinases (Homo sapiens, UniProt Q8IVH8), sequence (Q8IVH8 whole entry): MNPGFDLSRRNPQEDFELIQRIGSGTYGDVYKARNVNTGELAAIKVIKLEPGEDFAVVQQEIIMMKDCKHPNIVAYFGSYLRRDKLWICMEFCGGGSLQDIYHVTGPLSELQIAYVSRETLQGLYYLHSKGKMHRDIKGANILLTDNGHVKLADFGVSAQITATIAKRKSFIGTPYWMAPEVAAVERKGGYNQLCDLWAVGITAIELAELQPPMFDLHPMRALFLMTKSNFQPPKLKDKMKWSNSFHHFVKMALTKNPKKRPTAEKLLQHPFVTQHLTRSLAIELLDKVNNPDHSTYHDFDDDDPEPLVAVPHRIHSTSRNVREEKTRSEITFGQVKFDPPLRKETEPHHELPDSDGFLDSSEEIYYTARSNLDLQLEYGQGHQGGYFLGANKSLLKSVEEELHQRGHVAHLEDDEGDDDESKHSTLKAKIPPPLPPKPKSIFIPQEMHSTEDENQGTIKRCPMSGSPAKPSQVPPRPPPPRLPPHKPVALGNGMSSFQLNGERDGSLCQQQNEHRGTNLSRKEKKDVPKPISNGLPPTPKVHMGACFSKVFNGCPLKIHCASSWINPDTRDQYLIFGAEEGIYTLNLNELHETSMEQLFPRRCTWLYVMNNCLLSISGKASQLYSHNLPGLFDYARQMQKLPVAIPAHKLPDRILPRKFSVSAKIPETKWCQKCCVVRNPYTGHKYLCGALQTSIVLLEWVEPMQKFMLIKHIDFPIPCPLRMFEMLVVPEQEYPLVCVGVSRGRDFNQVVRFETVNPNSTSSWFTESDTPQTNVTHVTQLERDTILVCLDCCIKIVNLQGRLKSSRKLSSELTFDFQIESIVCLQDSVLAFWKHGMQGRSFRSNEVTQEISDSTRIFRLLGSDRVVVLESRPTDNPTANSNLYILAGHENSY
kinases (Homo sapiens, UniProt Q13705), sequence (Q13705 19-512): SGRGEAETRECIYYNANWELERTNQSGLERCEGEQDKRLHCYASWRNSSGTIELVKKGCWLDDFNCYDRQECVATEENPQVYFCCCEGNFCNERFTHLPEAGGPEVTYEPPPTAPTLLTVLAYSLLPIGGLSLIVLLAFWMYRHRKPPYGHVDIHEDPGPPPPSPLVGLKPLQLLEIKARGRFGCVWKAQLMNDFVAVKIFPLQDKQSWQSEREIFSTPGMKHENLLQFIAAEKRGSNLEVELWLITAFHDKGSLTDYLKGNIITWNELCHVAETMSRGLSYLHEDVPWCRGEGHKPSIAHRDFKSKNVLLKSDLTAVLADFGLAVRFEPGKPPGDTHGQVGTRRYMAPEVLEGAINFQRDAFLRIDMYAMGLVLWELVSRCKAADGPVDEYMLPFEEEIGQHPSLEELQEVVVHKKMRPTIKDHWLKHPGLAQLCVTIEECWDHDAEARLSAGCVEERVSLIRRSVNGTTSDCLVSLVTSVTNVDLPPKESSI
kinases (Homo sapiens, UniProt Q9NWZ3), sequence (Q9NWZ3 whole entry): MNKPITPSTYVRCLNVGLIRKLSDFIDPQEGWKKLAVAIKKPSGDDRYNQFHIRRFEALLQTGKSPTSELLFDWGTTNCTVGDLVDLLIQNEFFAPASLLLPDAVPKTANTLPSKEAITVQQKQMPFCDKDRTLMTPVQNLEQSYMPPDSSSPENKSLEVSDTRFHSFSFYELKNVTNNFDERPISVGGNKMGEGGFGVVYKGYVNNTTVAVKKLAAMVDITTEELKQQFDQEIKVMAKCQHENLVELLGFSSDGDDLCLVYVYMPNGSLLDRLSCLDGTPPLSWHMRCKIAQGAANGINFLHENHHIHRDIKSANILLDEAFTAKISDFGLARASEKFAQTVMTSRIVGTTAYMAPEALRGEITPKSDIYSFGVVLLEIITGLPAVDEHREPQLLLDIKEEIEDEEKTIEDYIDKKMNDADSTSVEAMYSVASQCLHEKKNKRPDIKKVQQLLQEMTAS

SMILES | Mean Inhib (%) (kinases [1]) | Mean Inhib (%) (kinases [2]) | Mean Inhib (%) (kinases [3]) | Mean Inhib (%) (kinases [4]) | Mean Inhib (%) (kinases [5]) | Mean Inhib (%) (kinases [6]) | Mean Inhib (%) (kinases [7]; [29]) | Mean Inhib (%) (kinases [7]; [30]) | Mean Inhib (%) (kinases [8]) | Mean Inhib (%) (kinases [9]) | Mean Inhib (%) (kinases [10]) | Mean Inhib (%) (kinases [11]) | Mean Inhib (%) (kinases [12]) | Mean Inhib (%) (kinases [13]; [31]) | Mean Inhib (%) (kinases [13]; [32]) | Mean Inhib (%) (kinases [13]; [33]) | Mean Inhib (%) (kinases [13]; [34]) | Mean Inhib (%) (kinases [14]) | Mean Inhib (%) (kinases [15]) | Mean Inhib (%) (kinases [16]) | further results
Cc1ccc(NC(=O)c2ccnc(N3CCOCC3)c2)cc1Nc1ccnc(N2CC(C)OC(C)C2)n1 (stereo not shown) [compound 3] | 15.1% | 1.4% | 6.7% | 9.9% | 1.7% | 5.5% | −0.2% | 10.6% | 11.2% | −9.4% | 7.7% | −1.3% | 9.0% | 13.8% | 2.7% | −1.8% | 6.2% | −2.5% | 13.5% | 10.8% | Mean Inhib (%) (kinases [17]): −1.6%; Mean Inhib (%) (kinases [18]): −2.1%; Mean Inhib (%) (kinases [19]): −2.1%; Mean Inhib (%) (kinases [20]): 13.9%; Mean Inhib (%) (kinases [21]): 4.7%; Mean Inhib (%) (kinases [22]): 12.7%; Mean Inhib (%) (kinases [23]): −1.6%; Mean Inhib (%) (kinases [24]): 16.9%; Mean Inhib (%) (kinases [25]): 9.3%; Mean Inhib (%) (kinases [26]): 7.2%; Mean Inhib (%) (kinases [27]): 4.6%; Mean Inhib (%) (kinases [28]): −3.6%
Cc1cc(Oc2ccnc(Nc3ccc(S(N)(=O)=O)cc3)c2)c(-c2ccccn2)nc1C [compound 65] | 1.0% | 58.1% | 29.9% | 9.5% | −1.3% | 4.9% | 5.5% | 1.1% | 5.1% | −1.2% | 14.0% | 82.6% | 12.4% | 10.6% | 3.0% | 4.9% | 5.0% | −0.8% | 5.5% | 30.7% | Mean Inhib (%) (kinases [17]): 3.4%; Mean Inhib (%) (kinases [18]): 9.2%; Mean Inhib (%) (kinases [19]): 95.6%; Mean Inhib (%) (kinases [20]): 9.8%; Mean Inhib (%) (kinases [21]): 4.6%; Mean Inhib (%) (kinases [22]): 6.8%; Mean Inhib (%) (kinases [23]): −3.0%; Mean Inhib (%) (kinases [24]): 12.0%; Mean Inhib (%) (kinases [25]): 1.4%; Mean Inhib (%) (kinases [26]): −7.8%; Mean Inhib (%) (kinases [27]): 1.2%; Mean Inhib (%) (kinases [28]): 3.0%

Reference: patent publication US20220187282A1, “CARDIOMYOCYTE PROLIFERATION” (The Council of the Queensland Institute of Medical Research, priority 2019, published 2022)
